Our source for the Activity and IC50 values is ChEMBL document CHEMBL4138289, “Structurally Diverse Cytotoxic Dimeric Chalcones from Oxytropis chiliophylla” (J Nat Prod, 2018).

In assay [1] the test system is PC-3. In words: Cytotoxicity against human PC3 cells at 5 uM after 48 hrs by MTT assay relative to control. It counts as functional. In general terms: Tetrazolium assays rely on reduction of a dye to a coloured formazan, in cell work by metabolically active cells.
The subject of assay [2] is PC-3. In words: Cytotoxicity against human PC3 cells at 25 uM after 48 hrs by MTT assay relative to control. It counts as functional.
In assay [3] the test system is PC-3. In words: Growth inhibition of human PC3 cells after 48 hrs by MTT assay. The format is functional, cell-based. The note with it: PC-3, 48 h.

Turning to `O=C(c1ccc(O)cc1O)[C@@H]1[C@H](C(=O)c2ccc(O)cc2O)[C@@H](c2ccccc2)[C@H]1c1ccccc1`, the Activity was 27.1% in assay [1] and 78.8% in assay [2].

`O=C(c1ccc(O)cc1O)[C@H]1[C@H](c2ccccc2)[C@@H](C(=O)c2ccc(O)cc2O)[C@@H]1c1ccccc1`: the results for the Activity in assay [1] and in assay [2] were 12.8% and 76.7%, respectively.

The term IC50 denotes the concentration at which inhibition is half-maximal. High values mean weaker potency in that assay, low ones greater potency in that assay. On to `O=C(c1ccc(O)cc1O)[C@H]1[C@H](C(=O)c2ccc(O)cc2O)[C@@H](c2ccccc2)[C@@H]1c1ccccc1`, for which the Activity in assay [1] was found to be 49.7%; in assay [2], 97.6%. The same molecule yielded a concentration for half-maximal inhibition (IC50) in assay [3] of 3.5 µM.

`O=C(/C=C/c1ccccc1)c1ccc(O)cc1O` [2',4'-DIHYDROXYCHALCONE]: the Activity worked out at 16.6% in assay [1] and 66.2% in assay [2].

In the case of `O=C(c1ccc(O)cc1O)[C@H]1Cc2ccccc2[C@@H](C(=O)c2ccc(O)cc2O)[C@H]1c1ccccc1`, the Activity in assay [1] is 46.1%; in assay [2] it was 86.3%.

Consider `O=C(c1ccc(O)cc1O)[C@@H]1Cc2ccccc2[C@H](C(=O)c2ccc(O)cc2O)[C@@H]1c1ccccc1`, for which the Activity in assay [1] was 22.3%; in assay [2], 73.4%.

With `O=C(c1ccc(O)cc1O)[C@H]1[C@H](c2ccccc2)[C@H](C(=O)c2ccc(O)cc2O)[C@H]1c1ccccc1`, the Activity in assay [1] is on record as 29.6%; in assay [2], 88%.

As for `O=C(c1ccc(O)cc1O)[C@@H]1[C@@H](C(=O)c2ccc(O)cc2O)[C@H](c2ccccc2)[C@H]1c1ccccc1`, the Activity in assay [1] is 41.2%; in assay [2] it was 96.3%. In assay [3], this molecule yielded an IC50 of 3.8 µM.

On to `O=C(c1ccc(O)cc1O)[C@H]1[C@H](C(=O)c2ccc(O)cc2O)[C@H](c2ccccc2)[C@@H]1c1ccccc1`, for which the Activity in assay [1] is 30.7%; in assay [2], 87.6%.

As for `O=C(c1ccc(O)cc1O)[C@H]1[C@H](c2ccccc2)[C@H](C(=O)c2ccc(O)cc2O)[C@@H]1c1ccccc1`, the Activity stood at 12.3% in assay [1] and 57.9% in assay [2].

Regarding `O=C(c1ccc(O)cc1O)[C@@H]1[C@@H](C(=O)c2ccc(O)cc2O)[C@H](c2ccccc2)[C@@H]1c1ccccc1`, the Activity in assay [1] worked out at 29%; in assay [2], 75.5%.
